In US20250066480A1, “METHODS TO ENHANCE EFFICACY OF COMBINED TARGETING OF IMMUNE CHECKPOINT AND MAPK PATHWAYS” (THE REGENTS OF THE UNIVERSITY OF CALIFORNIA, priority 2021, published 2025):

Assays:
[1] = system: NRAS^MUT melanoma; details: patients with NRAS^MUT melanoma; cited from earlier work
[2] = system: intratumoral T-cell clonotypes (YUMM1.7ER metastases); assay: Bulk tumor TCR-seq of tumor-involved brain and ovarian tissues; format: in vivo, mouse; details: on d3; FIG. 6B
Description: Total RNA was extracted from frozen tissue stored in RNALater using the QIAGEN All Prep DNA/RNA Mini Kit. RNA quality was measured using Bioanalyzer (Agilent). 710 ng-1,000 ng of RNA from ovary and brain tissues (RNA Integrity Number (RIN) score >7) was used as input to construct libraries with the QIAGEN QIAseq Immune Repertoire RNA Library Kit—T cell Receptor Panel (Qiagen). Briefly, RNA was reverse transcribed using a pool of TCR gene-specific primers against the constant region for the T cell receptor alpha, beta, gamma, and delta genes. The resulting cDNA was then ligated to an oligo containing one side of sample index and unique molecular index (UMI). […] The dual-indexed sample PCR fragment was purified and then quantified for absolute quantification of amplifiable libraries (DNA with adaptors at both ends) in triplicate by real-time qPCR using QIAGEN QIAseq Library Quant Array Kit. […] 12 μM of denatured library pool was run with QIAseq A Read1 Primer on Illumina NextSeq 500 Mid Output Kit using v2.5 chemistry for 300 cycles with an asymmetrical paired end 261/41 bp read for CDR3 region.
As reported previously (10), raw reads were submitted to the QIAGEN GeneGlobe Data Analysis Center (qiagen.com/us/shop/genes-and-pathways/data-analysis-center-overview-page/) to estimate the abundance of reads of unique CDR3 sequence and generate TCR clonotype calls. […]

[3] = system: YUMM1.7ER-luc (Braf^V600E melanoma) intracranial and extracranial metastases; assay: Experimental metastasis of syngeneic melanoma (intracardiac injection, BLI, survival); details: MEKi monotherapy from d0
Description: YUMM1.7ER melanoma cells were engineered to express firefly luciferase (YUMM1.7ER-luc). Before every IC injection, cells were selected for stable luciferase expression by blasticidin treatment, yielding cells (1 million) that emitted luciferase light units of 5e8 to 5e9 in vitro. C57BL/6 (6-8 weeks old, female), after anesthesia with vaporized isoflurane (2.0-2.5%), were injected with 1×10^6 cells/mouse into the left ventricle for intracardiac inoculation. Progression of metastatic tumor burden and treatment effects in mice were monitored in vivo and ex vivo by bioluminescent imaging (BLI). We acquired BLI on both ventral and dorsal sides twice weekly until study endpoints (total ventral or dorsal BLI signal in the range of 1e9-1e10, moribund, or death). Mice were anesthetized with vaporized isoflurane; D-luciferin (150 mg luciferin/kg, Caliper Life Sciences) dosed by intraperitoneal injections; and, 10 minutes after injections, luciferase activities were measured with IVIS Lumina II Imaging System (PerkinElmer). Image analysis was performed with Living Image 4.7.2 Version (PerkinElmer). For ex vivo BLI, mice were euthanized 10 minutes after intraperitoneal injection of D-luciferin by cervical dislocation and organs were excised and imaged ex vivo by the IVIS system. […]

Compound | Clinical benefit (median PFS, confirmed overall response, median duration of objective response) in association with prior ICT [1] | Fraction of overlapping TCR clones between two distinct regions of tumor-involved brain tissues [2] | Delay of MBM [3] [weeks]
Cn1cnc2c(F)c(Nc3ccc(Br)cc3F)c(C(=O)NOCCO)cc21 [binimetinib] | greater clinical benefit | – | –
CC(=O)Nc1cccc(-n2c(=O)n(C3CC3)c(=O)c3c(Nc4ccc(I)cc4F)n(C)c(=O)c(C)c32)c1 [Trametinib, trametinib] | – | 6.17-9.77% | ~1.5
